According to patent US10710996B2, “Pyrido-azaheterecydic compound and preparation method and use thereof” (SHANGHAI INSTITUTE OF MATERIA MEDICA, CHINESE ACADEMY OF …, priority 2015, dated 2020):
Several values for one entry are separate records, joined by “and”; a condition that tells them apart may be missing. Identical values can stand only once. Like-named read-outs stand apart in the source and are kept apart here.

Tests used:
EBC-1 cells = assay: Inhibition of c-Met-mediated EBC-1 cell proliferation (SRB staining); format: cell-based; conditions: Homo sapiens, 72 hours treatment
Procedure, shortened: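 MET-amplified EBC-1 NSCLC cells in log phase were seeded, cultured overnight, then exposed to compound in triplicate for 72 h. Growth was measured by TCA fixation, SRB staining and OD at 515 nm. IC50 reported as a range from the initial screening concentrations; experiment repeated twice.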

c-Met kinase = target: T1, c-Met kinase (Homo sapiens, UniProt P08581); assay: Inhibitory effect on c-Met kinase activity at molecular level (ELISA); format: biochemical;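 note: recombinant c-Met kinase domain with 5 µM ATP, 1 h at 37 °C, substrate phosphorylation detected by anti-phosphotyrosine PY99 ELISA at 490 nm versus DMSO negative control, ATP-free wells as blank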
T1 construct: c-Met kinase domain recombinant protein diluted with 49 μL of the reaction buffer was added
Description: Experiment for Preliminarily Evaluating the Inhibitory Effect on the Activity of Receptor Tyrosine Kinase c-Met at Molecular Level
After discarding the liquid in the wells, the plate was washed with T-PBS (0.1% Tween-20 in PBS) in an amount of 200 μL/well three times, each for 5 minutes. The ELISA plate was dried in an oven at 37° C. for 1-2 hours. 50 μl of adenosine triphosphate (ATP) solution diluted with reaction buffer (50 mM 4-hydroxyethylpiperazine ethanesulfonic acid (HEPES) pH 7.4, 50 mM MgCl2, 0.5 mM MnCl2, 0.2 mM Na3VO4, 1 mM dithiothreitol (DTT)) to a final concentration of 5 μM was added to each well. The compounds were diluted to an appropriate concentration with DMSO (1 μL/well) or a solution containing DMSO in a corresponding concentration (negative control well), and then c-Met kinase domain recombinant protein diluted with 49 μL of the reaction buffer was added therein to initiate the reaction, with two ATP-free control wells for each test. The plate was placed in a shaker (100 rpm) at 37° C. for reacting 1 hour, and washed with T-PBS three times. Primary antibody PY99 diluent was added in an amount of 100 μL/well to allow the reaction in a shaker at 37° C. for 0.5 hour, and then the plate was washed with T-PBS three times. Then the secondary antibody horseradish peroxidase labeled goat anti-mouse IgG diluent was added in an amount of 100 μL/well, and the plate was placed in a shaker at 37° C. for reacting 0.5 hour, and then washed with T-PBS three times. 2 mg/ml of o-phenylenediamine (OPD) coloring solution (diluted with 0.1 M citric acid-sodium citrate buffer (pH=5.4) containing 0.03% H2O2) was then added at 100 μL/well and reacted at 25° C. for 1-10 min with light blocked (ultrasound was required to dissolve OPD, the coloring solution was prepared when needed). The reaction was stopped by adding 2 M of H2SO4 in an amount of 50 μL/well, and a wavelength-adjustable microplate reader SPECTRA MAX 190 was read at 490 nm.
The inhibition rate of the sample was calculated by the following equation:

[1] = Pharmacokinetic test in rats; format: in vivo, Sprague-Dawley rats; conditions: rat
Description: 14 male Sprague-Dawley rats, weigh 200-220 g, were randomly divided into 4 groups with 4/3 in each group. The rats were intragastrically and intravenously administered with compound 7S and 8S respectively. The compounds were dissolved in normal saline containing 5% of DMSO and solubilized with 5% of tween-80 (Tween 80), and the final concentration of the sample was 1 mg/ml.
The rats were fasted 12 h before the test, free drinking water. They were fed 2 h after administration.
gavage administration: 0.25 h, 0.5 h, 1.0 h, 2.0 h, 3.0 h, 4.0 h, 6.0 h, 8.0 h and 24 h after administration;
intravenous administration: 5 min, 0.25 h, 0.5 h, 1.0 h, 2.0 h, 4.0 h, 6.0 h, 8.0 h and 24 h after administration;
0.3 ml venous blood was collected from the retrobulbar venous plexus of rats at the above time point, and placed in a heparinized tube and centrifuged at 11000 rpm for 5 min. The plasma was separated and frozen in a refrigerator at −20° C.
The concentrations of the compounds in rat plasma were measured by LC/MS/MS.
Pharmacokinetic parameters after administration were calculated using the non-compartmental model of the Phoenix 1.3 software (Pharsight, U.S.A.).
Peak concentration Cmax and peak time Tmax were the measured values;
The area under the curve of the drug concentration vs. time AUC0-t value: calculated according to trapezoidal rule; AUC0-∞=AUC0-t+Ct/ke, Ct is the plasma concentration at the last measurable time point, ke is the elimination rate constant;
Elimination half-life t1/2=0.693/ke;
Average retention time MRT=AUMC/AUC.
Clearance rate CL=D/AUC0-∞;
Volume of distribution at steady state Vss=CL×MRT

ErbB4 = ErbB4 (Homo sapiens, UniProt Q15303); assay: Tyrosine kinase inhibition rate (ELISA), ErbB4; format: biochemical; conditions: read-out: Inhibtion rate (%) ErbB4
PDGFR-α = PDGFR-α (Homo sapiens, UniProt P16234); assay: Tyrosine kinase inhibition rate (ELISA), PDGFR-α; format: biochemical; conditions: read-out: Inhibtion rate (%) PDGFR-α
EGFR = EGFR (Homo sapiens, UniProt P00533); assay: Tyrosine kinase inhibition rate (ELISA), EGFR; format: biochemical; conditions: read-out: Inhibtion rate (%) EGFR
PDGFR-β = PDGFR-β (Homo sapiens, UniProt P09619); assay: Tyrosine kinase inhibition rate (ELISA), PDGFR-β; format: biochemical; conditions: read-out: Inhibtion rate (%) PDGFR-β
FGFR1 = FGFR1 (Homo sapiens, UniProt P11362); assay: Tyrosine kinase inhibition rate (ELISA), FGFR1; format: biochemical; conditions: read-out: Inhibtion rate (%) FGFR1
IGF1R = IGF1R (Homo sapiens, UniProt P08069); assay: Tyrosine kinase inhibition rate (ELISA), IGF1R; format: biochemical; conditions: read-out: Inhibtion rate (%) IGF1R
c-Src = c-Src (Homo sapiens, UniProt P12931); assay: Tyrosine kinase inhibition rate (ELISA), c-Src; format: biochemical; conditions: read-out: Inhibtion rate (%) c-Src
ABL = ABL (Homo sapiens, UniProt P00519); assay: Tyrosine kinase inhibition rate (ELISA), ABL; format: biochemical; conditions: read-out: Inhibtion rate (%) ABL
RET = RET (Homo sapiens, UniProt P07949); assay: Tyrosine kinase inhibition rate (ELISA), RET; format: biochemical; conditions: read-out: Inhibtion rate (%) RET
Flt-1 = Flt-1 (Homo sapiens, UniProt P17948); assay: Tyrosine kinase inhibition rate (ELISA), Flt-1; format: biochemical; conditions: read-out: Inhibtion rate (%) Flt-1
EPH-A2 = EPH-A2 (Homo sapiens, UniProt P29317); assay: Tyrosine kinase inhibition rate (ELISA), EPH-A2; format: biochemical; conditions: read-out: Inhibtion rate (%) EPH-A2
[2] = test system: human lung cancer EBC-1 xenograft tumor; assay: Growth inhibition of subcutaneous xenograft tumor of human lung cancer EBC-1 in nude mice; format: in vivo; conditions: for RTV (mean ± SD) / T/C (%) / TV (mm^3, mean ± SD) d21 / Weight (g) d21: d21
Description: EBC-1 cells were subcutaneously inoculated into the armpit on the right side of the nude mice in an amount of 5×10^6/mouse respectively to form xenograft tumor, which were then passaged in nude mice for three generations. Tumor tissue that was growing vigorously was cut into about 1.5 mm^3 under sterile conditions, and subcutaneously inoculated into the armpit on the right side of the nude mice, and the diameter of the xenograft tumor was measured with a vernier caliper. The diameter of the subcutaneous xenograft tumor in nude mice was measured with a vernier caliper. […] The diameter of xenograft tumor was measured twice a week and the body weight of mice was weighed during the whole experiment. The tumor volume (TV) was calculated by the following equation: TV=½×a×b^2, wherein a and b represent the length and width, respectively. The relative tumor volume (RTV) was calculated based on the measured results, and the calculation equation thereof is: RTV=Vt/V0, wherein V0 is the tumor volume measured when the mice were divided in different cages and administered (i.e., d0) and Vt is the tumor volume measured each time.

ALK = ALK (Homo sapiens, UniProt Q9UM73); assay: Tyrosine kinase inhibition rate (ELISA), ALK; format: biochemical; conditions: read-out: Inhibtion rate (%) ALK
[3] = male, Sprague-Dawley, plasma, po, intragastric (gavage) 10 mg/kg, mean
[4] = male, Sprague-Dawley, plasma, intravenous 5 mg/kg, mean
[5] = 100 mg/kg oral once a day for 21 days

T1 sequence (P08581 1078-1345 limits assumed): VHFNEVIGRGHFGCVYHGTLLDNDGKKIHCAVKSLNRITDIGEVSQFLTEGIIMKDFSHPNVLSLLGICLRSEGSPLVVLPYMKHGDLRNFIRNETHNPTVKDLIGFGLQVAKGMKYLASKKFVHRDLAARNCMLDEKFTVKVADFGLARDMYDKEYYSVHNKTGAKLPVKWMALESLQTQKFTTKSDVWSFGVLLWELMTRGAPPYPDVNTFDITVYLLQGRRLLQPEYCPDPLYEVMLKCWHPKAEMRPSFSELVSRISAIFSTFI
c-Src, sequence (P12931 whole entry, species assumed): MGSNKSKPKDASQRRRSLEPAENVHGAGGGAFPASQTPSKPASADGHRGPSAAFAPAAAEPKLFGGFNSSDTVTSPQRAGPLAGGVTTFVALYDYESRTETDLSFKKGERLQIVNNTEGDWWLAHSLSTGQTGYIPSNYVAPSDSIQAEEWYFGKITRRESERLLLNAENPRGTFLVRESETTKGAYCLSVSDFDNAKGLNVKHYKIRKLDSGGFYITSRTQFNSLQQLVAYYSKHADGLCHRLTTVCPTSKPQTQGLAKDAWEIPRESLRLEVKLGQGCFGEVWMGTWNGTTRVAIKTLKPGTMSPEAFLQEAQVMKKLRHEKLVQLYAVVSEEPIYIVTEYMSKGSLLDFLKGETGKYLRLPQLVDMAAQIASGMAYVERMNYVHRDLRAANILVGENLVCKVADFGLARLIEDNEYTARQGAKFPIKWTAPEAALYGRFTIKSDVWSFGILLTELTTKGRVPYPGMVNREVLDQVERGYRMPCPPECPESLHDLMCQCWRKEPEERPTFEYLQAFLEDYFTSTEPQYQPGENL
IGF1R, sequence (P08069 31-1367, species assumed): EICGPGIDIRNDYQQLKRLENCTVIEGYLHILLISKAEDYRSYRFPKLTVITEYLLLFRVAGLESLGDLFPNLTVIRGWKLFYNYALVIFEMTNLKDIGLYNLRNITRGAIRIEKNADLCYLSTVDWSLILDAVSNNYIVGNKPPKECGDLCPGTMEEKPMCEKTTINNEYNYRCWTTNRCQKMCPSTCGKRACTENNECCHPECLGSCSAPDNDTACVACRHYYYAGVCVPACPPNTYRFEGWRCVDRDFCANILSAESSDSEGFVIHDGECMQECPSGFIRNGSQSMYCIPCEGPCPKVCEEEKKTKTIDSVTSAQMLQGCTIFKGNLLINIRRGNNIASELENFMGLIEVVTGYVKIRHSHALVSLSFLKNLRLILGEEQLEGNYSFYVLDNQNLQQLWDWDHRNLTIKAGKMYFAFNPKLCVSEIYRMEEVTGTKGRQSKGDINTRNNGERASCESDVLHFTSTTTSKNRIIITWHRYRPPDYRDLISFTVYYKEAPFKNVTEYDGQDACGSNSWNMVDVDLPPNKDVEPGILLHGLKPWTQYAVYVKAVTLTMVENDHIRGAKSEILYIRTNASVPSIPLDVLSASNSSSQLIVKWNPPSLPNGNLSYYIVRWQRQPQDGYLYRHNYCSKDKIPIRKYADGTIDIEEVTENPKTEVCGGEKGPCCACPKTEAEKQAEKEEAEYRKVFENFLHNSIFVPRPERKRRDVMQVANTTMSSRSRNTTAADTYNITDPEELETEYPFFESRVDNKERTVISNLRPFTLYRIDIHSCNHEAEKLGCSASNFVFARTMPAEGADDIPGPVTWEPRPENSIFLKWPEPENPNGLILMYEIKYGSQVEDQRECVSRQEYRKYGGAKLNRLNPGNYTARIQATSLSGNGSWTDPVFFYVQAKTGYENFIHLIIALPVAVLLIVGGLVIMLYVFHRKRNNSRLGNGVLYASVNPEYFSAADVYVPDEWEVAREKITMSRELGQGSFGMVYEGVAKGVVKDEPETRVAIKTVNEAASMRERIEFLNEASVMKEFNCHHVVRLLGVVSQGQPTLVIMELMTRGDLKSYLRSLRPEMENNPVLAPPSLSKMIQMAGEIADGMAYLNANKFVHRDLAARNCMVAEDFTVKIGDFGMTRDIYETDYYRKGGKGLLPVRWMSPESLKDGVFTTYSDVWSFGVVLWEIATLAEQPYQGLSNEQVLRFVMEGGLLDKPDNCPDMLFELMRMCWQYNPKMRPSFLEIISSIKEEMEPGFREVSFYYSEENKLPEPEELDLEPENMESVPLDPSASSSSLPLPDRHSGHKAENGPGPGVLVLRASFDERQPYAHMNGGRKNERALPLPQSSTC
EGFR, sequence (P00533 25-1210, species assumed): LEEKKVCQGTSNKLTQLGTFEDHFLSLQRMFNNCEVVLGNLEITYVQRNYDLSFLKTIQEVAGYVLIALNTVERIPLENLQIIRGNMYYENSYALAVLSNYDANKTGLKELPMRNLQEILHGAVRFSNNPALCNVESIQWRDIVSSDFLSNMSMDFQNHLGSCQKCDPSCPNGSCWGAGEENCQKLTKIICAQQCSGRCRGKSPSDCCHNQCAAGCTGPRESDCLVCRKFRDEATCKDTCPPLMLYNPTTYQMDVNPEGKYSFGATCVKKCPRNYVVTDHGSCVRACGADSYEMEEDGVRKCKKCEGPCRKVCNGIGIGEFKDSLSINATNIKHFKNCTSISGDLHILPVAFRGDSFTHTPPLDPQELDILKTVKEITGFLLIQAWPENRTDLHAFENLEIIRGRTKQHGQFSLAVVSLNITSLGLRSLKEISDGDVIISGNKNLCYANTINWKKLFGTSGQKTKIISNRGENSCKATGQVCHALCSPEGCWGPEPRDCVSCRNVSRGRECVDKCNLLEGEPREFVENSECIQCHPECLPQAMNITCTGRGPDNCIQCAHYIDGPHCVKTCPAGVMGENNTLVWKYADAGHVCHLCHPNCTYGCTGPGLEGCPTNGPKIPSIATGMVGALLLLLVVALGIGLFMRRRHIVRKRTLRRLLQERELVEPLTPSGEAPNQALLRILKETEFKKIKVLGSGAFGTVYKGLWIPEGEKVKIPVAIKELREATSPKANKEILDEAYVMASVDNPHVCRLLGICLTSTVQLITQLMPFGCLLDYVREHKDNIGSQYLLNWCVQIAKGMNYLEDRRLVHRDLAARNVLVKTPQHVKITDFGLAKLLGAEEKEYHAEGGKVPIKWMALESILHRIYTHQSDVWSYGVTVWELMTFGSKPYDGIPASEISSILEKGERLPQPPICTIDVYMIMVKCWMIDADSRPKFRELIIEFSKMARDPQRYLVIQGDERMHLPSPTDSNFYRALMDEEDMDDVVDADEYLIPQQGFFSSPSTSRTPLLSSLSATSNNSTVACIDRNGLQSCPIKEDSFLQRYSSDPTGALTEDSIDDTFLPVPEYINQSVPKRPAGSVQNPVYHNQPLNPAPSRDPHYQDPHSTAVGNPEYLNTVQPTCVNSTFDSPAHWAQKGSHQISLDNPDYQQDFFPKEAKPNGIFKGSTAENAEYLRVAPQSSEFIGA
PDGFR-β, sequence (P09619 33-1106, species assumed): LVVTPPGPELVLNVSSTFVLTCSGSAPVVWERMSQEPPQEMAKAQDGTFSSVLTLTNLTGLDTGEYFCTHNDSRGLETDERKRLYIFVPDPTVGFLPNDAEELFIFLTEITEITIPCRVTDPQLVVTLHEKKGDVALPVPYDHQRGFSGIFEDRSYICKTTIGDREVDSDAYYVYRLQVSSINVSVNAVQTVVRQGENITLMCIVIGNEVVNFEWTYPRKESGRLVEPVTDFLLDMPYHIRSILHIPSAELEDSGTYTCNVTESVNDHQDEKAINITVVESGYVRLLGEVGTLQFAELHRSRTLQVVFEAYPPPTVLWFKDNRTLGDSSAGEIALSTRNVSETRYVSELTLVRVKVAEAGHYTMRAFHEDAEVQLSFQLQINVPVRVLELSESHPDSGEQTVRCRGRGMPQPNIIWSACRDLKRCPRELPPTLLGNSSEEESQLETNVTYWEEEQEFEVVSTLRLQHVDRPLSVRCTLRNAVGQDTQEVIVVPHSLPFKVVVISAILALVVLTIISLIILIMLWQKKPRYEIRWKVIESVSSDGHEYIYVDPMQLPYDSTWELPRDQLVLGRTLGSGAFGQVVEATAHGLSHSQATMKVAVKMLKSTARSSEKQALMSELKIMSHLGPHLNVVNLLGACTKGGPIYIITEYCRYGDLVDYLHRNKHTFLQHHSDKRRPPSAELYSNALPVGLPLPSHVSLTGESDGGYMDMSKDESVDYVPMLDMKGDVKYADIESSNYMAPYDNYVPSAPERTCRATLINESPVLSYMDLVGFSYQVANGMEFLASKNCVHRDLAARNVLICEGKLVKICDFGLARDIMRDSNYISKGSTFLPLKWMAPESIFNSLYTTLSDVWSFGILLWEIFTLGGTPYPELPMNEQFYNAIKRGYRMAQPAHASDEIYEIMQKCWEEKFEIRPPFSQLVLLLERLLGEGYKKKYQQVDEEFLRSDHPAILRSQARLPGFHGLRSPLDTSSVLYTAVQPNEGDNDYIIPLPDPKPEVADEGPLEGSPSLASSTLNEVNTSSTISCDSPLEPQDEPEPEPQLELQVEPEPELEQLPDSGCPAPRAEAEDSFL

O=C(Nc1ccc(F)cc1)C1(C(=O)Nc2ccc(Oc3ccnc4ncc(OCCN5CCOCC5)nc34)c(F)c2)CC1 [Compound 67S, N-(3-fluoro-4-((2-(2-morpholinoethoxy)pyrido[2,3-b]pyrazin-8-yl)oxy)phenyl)-N-(4-fluorophenyl)cyclopropyl-1,1-dicarboxamide]
IC50 (EBC-1 cells): 1000 to 10000 nM | IC50 (c-Met kinase): 1000 to 10000 nM

COc1cc(NC(=O)C2(C(=O)Nc3ccc(Oc4ccnc5cc(OCCN6CCOCC6)ncc45)c(F)c3)CC2)ccc1F [Compound 24S, N-(4-fluoro-3-methoxyphenyl)-N-(3-fluoro-4-((7-(2-morpholinoethoxy)-1,6-naphthyridin-4-yl)oxy)phenyl) cyclopropyl-1,1-dicarboxamide]
IC50 (EBC-1 cells): 100 to 1000 nM | IC50 (c-Met kinase): 1 to 10 nM

O=C(Nc1ccc(F)cc1)C1(C(=O)Nc2ccc(Oc3ccnc4ncc(N5CCNCC5)nc34)c(F)c2)CC1 [Compound 65S, N-(4-((2-piperazinyl-pyrido[2,3-b]pyrazin-8-yl)oxy)-3-fluorophenyl)-N-(4-fluorophenyl)cyclopropyl-1,1-dicarboxamide]
IC50 (EBC-1 cells): 1000 to 10000 nM | IC50 (c-Met kinase): 1000 to 10000 nM

O=C(Nc1ccc(F)cc1)C1(C(=O)Nc2ccc(Oc3ccnc4cc(OCCN5CCOCC5)ncc34)c(F)c2)CC1 [Compound 7S, N-(3-fluoro-4-((7-(2-morpholinoethoxy)-1,6-naphthyridin-4-yl)oxy)phenyl)-N-(4-fluorophenyl)cyclopropyl-1,1-dicarboxamide]
bioavailability ([1]; male, Sprague-Dawley, plasma, oral, gavage 10 mg/kg vs intravenous 5 mg/kg, read-out: F (absolute bioavailability)): 51.8% | AUC(0-inf) [1, 3]: 16700 ng·h/mL | AUC(0-t) [1, 3]: 16500 ng·h/mL | Cmax [1, 3]: 5450 ng/mL | Tmax [1, 3]: 1.75 h | half-life [1, 3]: 1.66 h | AUC(0-inf) [1, 4]: 16000 ng·h/mL | AUC(0-t) [1, 4]: 15900 ng·h/mL | clearance [1, 4]: 5.23 mL/min/kg | half-life [1, 4]: 1 h | Vd ([1]; male, Sprague-Dawley, plasma, intravenous 5 mg/kg, mean, read-out: Vss): 0.346 L/kg | MRT ([1]; male, Sprague-Dawley, plasma, iv, 5 mg/kg, intravenous 5 mg/kg, mean, read-out: MRT): 1.11 h | MRT ([1]; male, Sprague-Dawley, plasma, po, 10 mg/kg, intragastric (gavage) 10 mg/kg, mean, read-out: MRT): 2.6 h | MRT ([1]; intragastric (gavage) 10 mg/kg, mean, 10 mg/kg): 2.653 h | inhibition at 1 µM (ErbB4): 6.6% | IC50 (EBC-1 cells): 10 to 100 nM | inhibition at 1 µM (PDGFR-α): 55.6% | inhibition at 1 µM (EGFR): 8.6% | inhibition at 1 µM (PDGFR-β): 48.7% | IC50 (c-Met kinase): 1 to 10 nM | inhibition at 1 µM (c-Met kinase; 1 μM, read-out: Inhibtion rate (%) c-Met): 100% | inhibition at 1 µM (FGFR1): 36.3% | inhibition at 1 µM (IGF1R): 18.1% | inhibition at 1 µM (c-Src): 55.9% | inhibition at 1 µM (ABL): 23.3% | inhibition at 1 µM (RET): 78.2% | inhibition at 1 µM (Flt-1): 70.3% | inhibition at 1 µM (EPH-A2): 87.9% | TV (mm^3, mean ± SD) d0 ([2]; 10 mg/kg qd/21 po): 128 ± 34 mm^3 | Weight (g) d0 ([2]; 10 mg/kg qd/21 po): 18.2 g | RTV (mean ± SD) ([2]; 10 mg/kg qd/21 po): 6.09 ± 2.17 | T/C (%) ([2]; 10 mg/kg qd/21 po): 46.24% | TV (mm^3, mean ± SD) d21 ([2]; 10 mg/kg qd/21 po): 764 ± 258 mm^3 | Weight (g) d21 ([2]; 10 mg/kg qd/21 po): 22.0 g | tumor volume growth inhibition rate GI [2, 5]: 96.5% | tumor weight inhibition rate [2, 5]: 86.9% | TV (mm^3, mean ± SD) d0 ([2]; 100 mg/kg qd/21 po): 128 ± 39 mm^3 | Weight (g) d0 ([2]; 100 mg/kg qd/21 po): 17.4 g | RTV (mean ± SD) ([2]; 100 mg/kg qd/21 po): 1.26 ± 0.85 | T/C (%) ([2]; 100 mg/kg qd/21 po): 9.58% and 9.5% | TV (mm^3, mean ± SD) d21 ([2]; 100 mg/kg qd/21 po): 181 ± 156 mm^3 | Weight (g) d21 ([2]; 100 mg/kg qd/21 po): 20.7 g | safety in vivo ([2]; within effective dose): safe and non-toxic within effective dose | inhibition at 1 µM (ALK): 21.7%

CN1CCN(c2cnc3c(Oc4ccc(NC(=O)C5(C(=O)Nc6ccc(F)cc6)CC5)cc4F)ccnc3n2)CC1 [Compound 59S, N-(3-fluoro-4-((3-(4-methylpiperazin-1-yl)pyrido[2,3-b]pyrazin-8-yl)oxy)phenyl)-N-(4-fluorophenyl)cyclopropyl-1,1-dicarboxamide]
IC50 (EBC-1 cells): 100 to 1000 nM | IC50 (c-Met kinase): 1 to 10 nM

O=C(Nc1ccc(F)cc1)C1(C(=O)Nc2ccc(Nc3ccnc4cc(OCCN5CCOCC5)ncc34)cc2)CC1 [Compound 13S, N-(4-fluorophenyl)-N-(4-((7-(2-morpholinoethoxy)-1,6-naphthyridin-4-yl)amino)phenyl)cyclopropyl-1,1-dicarboxamide]
IC50 (EBC-1 cells): 100 to 1000 nM | IC50 (c-Met kinase): 1 to 10 nM

CN(C)c1cc2nccc(Oc3ccc(NC(=O)C4(C(=O)Nc5ccc(F)cc5)CC4)cc3F)c2cn1 [Compound 2S, N-(4-((7-(dimethylamino)-1,6-naphthyridin-4-yl)oxy)-3-fluorophenyl)-N-(4-fluorophenyl)cyclopropyl-1,1-dicarboxamide]
IC50 (EBC-1 cells): 10 to 100 nM | IC50 (c-Met kinase): 1 to 10 nM
